Tests used:
calf skin collagen = molecular target: T1, calf skin collagen (Bos taurus, UniProt P02453+P02465); experiment: Anti-AGE activity on calf skin collagen in solution in the presence of ribose (pentosidine-type AGE fluorescence); type: biochemical; conditions: for IC50: read-out: Anti-AGE activity measured on collagen (IC50 in mg/mL) (converted)
T1 construct: from tissue; host or cells: calf skin
Method: Calf skin collagen (0.1 mg/mL) and ribose (0.5 M) are incubated in phosphate buffer 50 mM pH 7.4 at 37° C. in a 96-well Greiner bio-one plate with a black bottom (100 μL). The same experiment is performed in the presence of an AGE formation inhibitor, such as aminoguanidine (1 mg/mL, DMSO 10%). The following control solutions are also prepared: collagen (0.1 mg/mL) with or without an AGE formation inhibitor (1 mg/mL, DMSO 10%) is incubated in phosphate buffer 50 mM pH 7.4 at 37° C.

albumin = albumin (Bos taurus, UniProt P02769); experiment: Anti-AGE activity measured on albumin (pentosidine-type AGEs formed); type: biochemical; conditions: quantity of pentosidine-type AGEs formed
albumin, sequence (P02769 25-607): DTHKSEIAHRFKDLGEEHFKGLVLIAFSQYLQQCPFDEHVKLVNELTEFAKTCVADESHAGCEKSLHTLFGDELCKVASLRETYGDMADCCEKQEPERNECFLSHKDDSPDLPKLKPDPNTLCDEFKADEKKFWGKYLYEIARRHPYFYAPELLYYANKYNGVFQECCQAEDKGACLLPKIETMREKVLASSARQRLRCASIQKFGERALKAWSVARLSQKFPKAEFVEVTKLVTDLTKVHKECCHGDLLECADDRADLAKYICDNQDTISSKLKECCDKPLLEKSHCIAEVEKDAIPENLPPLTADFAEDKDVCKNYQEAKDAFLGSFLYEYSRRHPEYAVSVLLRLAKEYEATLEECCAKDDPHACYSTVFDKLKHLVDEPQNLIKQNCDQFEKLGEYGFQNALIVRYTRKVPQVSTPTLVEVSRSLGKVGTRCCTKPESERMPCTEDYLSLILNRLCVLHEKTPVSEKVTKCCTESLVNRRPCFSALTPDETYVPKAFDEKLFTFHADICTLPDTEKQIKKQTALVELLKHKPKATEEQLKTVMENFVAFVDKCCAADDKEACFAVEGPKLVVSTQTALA

[1] = DPPH antioxidant potential; conditions: for DPPH (μmol TE/g): TE: Trolox Equivalent
[2] = ORAC antioxidant potential; conditions: for ORAC (μmol TE/g): TE: Trolox Equivalent
[3] = ribose, quantity of pentosidine-type AGEs formed, NA: Inactive

T1 sequence (P02453 162-1217 limits assumed): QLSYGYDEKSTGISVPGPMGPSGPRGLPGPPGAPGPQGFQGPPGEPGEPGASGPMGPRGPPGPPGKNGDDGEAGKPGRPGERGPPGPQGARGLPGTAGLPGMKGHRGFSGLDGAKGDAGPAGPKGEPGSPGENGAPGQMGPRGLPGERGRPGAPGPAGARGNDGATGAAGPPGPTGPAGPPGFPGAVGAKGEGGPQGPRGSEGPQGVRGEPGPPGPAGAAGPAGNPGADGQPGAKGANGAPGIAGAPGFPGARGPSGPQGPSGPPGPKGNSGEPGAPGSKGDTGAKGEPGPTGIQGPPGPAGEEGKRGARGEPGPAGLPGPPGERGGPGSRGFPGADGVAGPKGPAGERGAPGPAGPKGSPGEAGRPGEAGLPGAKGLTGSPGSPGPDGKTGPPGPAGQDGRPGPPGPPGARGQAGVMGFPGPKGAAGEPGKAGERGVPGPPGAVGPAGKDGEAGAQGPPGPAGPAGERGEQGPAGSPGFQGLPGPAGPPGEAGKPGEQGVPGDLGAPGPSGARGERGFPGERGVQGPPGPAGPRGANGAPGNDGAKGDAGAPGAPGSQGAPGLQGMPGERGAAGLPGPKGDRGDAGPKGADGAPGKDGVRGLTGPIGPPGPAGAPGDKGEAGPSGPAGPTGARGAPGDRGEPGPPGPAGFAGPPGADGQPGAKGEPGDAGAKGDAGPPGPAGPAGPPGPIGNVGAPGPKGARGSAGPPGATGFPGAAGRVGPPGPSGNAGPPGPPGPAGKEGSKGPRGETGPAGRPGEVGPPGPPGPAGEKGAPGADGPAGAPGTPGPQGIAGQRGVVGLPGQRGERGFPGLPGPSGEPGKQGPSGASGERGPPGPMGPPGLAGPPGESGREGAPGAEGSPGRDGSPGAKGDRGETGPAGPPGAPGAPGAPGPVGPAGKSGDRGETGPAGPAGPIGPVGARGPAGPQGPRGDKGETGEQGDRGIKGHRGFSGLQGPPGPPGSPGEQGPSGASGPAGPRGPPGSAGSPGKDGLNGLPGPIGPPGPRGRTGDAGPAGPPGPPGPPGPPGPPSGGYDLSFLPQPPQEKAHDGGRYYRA
T1 sequence (P02465 80-1117 limits assumed): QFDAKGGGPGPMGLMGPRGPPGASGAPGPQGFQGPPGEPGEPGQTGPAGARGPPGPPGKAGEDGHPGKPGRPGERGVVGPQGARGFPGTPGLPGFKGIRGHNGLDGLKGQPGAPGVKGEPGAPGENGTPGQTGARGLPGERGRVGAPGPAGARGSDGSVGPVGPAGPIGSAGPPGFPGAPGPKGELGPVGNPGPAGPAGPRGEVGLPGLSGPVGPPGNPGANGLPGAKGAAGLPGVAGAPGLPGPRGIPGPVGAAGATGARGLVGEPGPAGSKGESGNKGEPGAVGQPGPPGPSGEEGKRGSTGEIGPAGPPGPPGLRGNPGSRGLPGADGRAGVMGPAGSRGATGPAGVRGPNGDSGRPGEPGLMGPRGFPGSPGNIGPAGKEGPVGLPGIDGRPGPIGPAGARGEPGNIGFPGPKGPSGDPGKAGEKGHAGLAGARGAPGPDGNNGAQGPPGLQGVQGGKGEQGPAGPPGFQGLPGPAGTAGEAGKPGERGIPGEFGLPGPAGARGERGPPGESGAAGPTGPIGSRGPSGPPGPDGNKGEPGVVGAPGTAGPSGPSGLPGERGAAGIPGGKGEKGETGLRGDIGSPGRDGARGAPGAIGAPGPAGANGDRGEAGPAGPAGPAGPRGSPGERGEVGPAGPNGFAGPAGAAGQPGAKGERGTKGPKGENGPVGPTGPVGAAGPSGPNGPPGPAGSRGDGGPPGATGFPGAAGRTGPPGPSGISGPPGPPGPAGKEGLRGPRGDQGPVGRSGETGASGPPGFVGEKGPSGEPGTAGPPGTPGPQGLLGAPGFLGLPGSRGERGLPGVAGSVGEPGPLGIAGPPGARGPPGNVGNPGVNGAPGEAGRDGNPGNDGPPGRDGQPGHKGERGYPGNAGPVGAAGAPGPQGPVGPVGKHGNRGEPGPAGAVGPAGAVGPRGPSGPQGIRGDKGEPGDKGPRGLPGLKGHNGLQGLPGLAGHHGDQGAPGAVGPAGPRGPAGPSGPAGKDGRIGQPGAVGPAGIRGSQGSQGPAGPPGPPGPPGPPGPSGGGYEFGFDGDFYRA

N=C(N)NN [Aminoguanidine]
IC50 (calf skin collagen; [3]): 13500 µM | IC50 (albumin; read-out: Anti-AGE activity measured on albumin (IC50 in mg/mL) (converted)): 2020 µM | antioxidant activity, DPPH test (in words) [1]: does not have an antioxidant activity | DPPH (μmol TE/g) [1]: 0 μmol TE/g | antioxidant activity, ORAC test (in words) [2]: does not have an antioxidant activity | ORAC (μmol TE/g) [2]: 0 μmol TE/g

Oc1cc(O)c2c(c1)O[C@H](c1ccc(O)c(O)c1)[C@H](O)[C@H]2c1c(O)cc(O)c2c1O[C@H](c1ccc(O)c(O)c1)[C@H](O)C2 [Procyanidin B2]
Anti-AGE activity measured on albumin (IC50 in mg/mL) (albumin): 0.1 mg/mL | DPPH (μmol TE/g) [1]: 3945 μmol TE/g | ORAC (μmol TE/g) [2]: 23720 μmol TE/g

O=c1c(O)c(-c2ccc(O)c(O)c2)oc2cc(O)cc(O)c12 [Quercetin]
IC50 (calf skin collagen; [3]): 1160 µM | DPPH (μmol TE/g) [1]: 6722 μmol TE/g

C/C(=C\CC/C(C)=C/CC[C@]1(C)CCc2cc(O)cc(C)c2O1)CC/C=C(\C)C(=O)O [garcinoic acid]
anti-glycation activity on calf skin collagen (in words) (calf skin collagen): has a real anti-glycation activity, but nevertheless inferior to that of kolaviron

GB2
Anti-AGE activity measured on collagen (IC50 in mg/mL) (calf skin collagen; [3]): 0.03 mg/mL
